Legend:
Assay type in all cases: in vivo
[1] = tested on: redroot pigweed (Amaranthus retroflexus, AMARE); assay: Pre-emerge test, greenhouse herbicide activity screening; settings: pre-emerge, 14 days after application, scale 0-100
How it was run: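 Compounds in acetone were track-sprayed at 187 l/ha, 15–1000 g ai/ha, onto sandy loam pots. Pre-emerge seeds were sown one day before spraying, with surface watering afterwards. Post-emerge plants were at the 2–3 leaf stage and sprayed with 0.25% v/v non-ionic surfactant. Injury was rated 0–100 at 14 days.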

[2] = tested on: upland rice (Oryza sp., var. Tebonnet, RICE); assay: Post-emerge test, crop safety; settings: post-emerge, 14 days after application, rating scale 0-100
How it was run: (§1)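 Applied at 15–1000 g ai/ha from acetone in 187 l/ha spray volume. Post-emergence applications included 0.25% v/v non-ionic surfactant and reached plants sown 8–21 days before. Pre-emergence applications were incorporated by surface watering. Efficacy or crop damage was rated on a 0–100 scale after 14 days.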

[3] = tested on: field corn (Zea mays L., var. Dekalb 535, CORN); assay: Post-emerge test, crop safety; settings: post-emerge, 14 days after application, rating scale 0-100
How it was run: as §1

[4] = tested on: upland rice (Oryza sp., var. Tebonnet, RICE); assay: Pre-emerge test, crop safety; settings: pre-emerge, 14 days after application, scale 0-100
How it was run: (§2)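 Rating: 0–100 visual injury, 14 DAA. Application: acetone, 187 l/ha, 15–1000 g ai/ha, flat-fan track sprayer with nozzle 40–45 cm above soil or canopy. Post-emerge runs used 0.25% v/v surfactant on 2–3 leaf plants.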

[5] = tested on: field corn (Zea mays L., var. Dekalb 535, CORN); assay: Pre-emerge test, crop safety; settings: pre-emerge, 14 days after application, scale 0-100
How it was run: as §2

[6] = tested on: green foxtail (Setaria viridis, SETVI); assay: Post-emerge test, greenhouse herbicide activity screening; settings: post-emerge, 14 days after application, rating scale 0-100
How it was run: (§3)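 Each test used a mechanized track sprayer delivering 187 l/ha of acetone solution at 15–1000 g ai/ha. Post-emerge foliage at 2–3 leaves was treated with added 0.25% v/v non-ionic surfactant and bottom-watered only. Injury was assessed on day 14, where 100 means total kill.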

[7] = tested on: sicklepod (Cassia obtusifolia, CASOB); assay: as above; settings: post-emerge, 14 days after application, rating scale 0-100
How it was run: as §3

[8] = tested on: ivyleaf morningglory (Ipomoea hederacea, IPOHE); assay: as above; settings: post-emerge, 14 days after application, rating scale 0-100
How it was run: as §3

[9] = tested on: velvetleaf (Abutilon theophrasti, ABUTH); assay: as above; settings: post-emerge, 14 days after application, rating scale 0-100
How it was run: as §3

[10] = tested on: redroot pigweed (Amaranthus retroflexus, AMARE); assay: as above; settings: post-emerge, 14 days after application, rating scale 0-100
How it was run: as §3

[11] = tested on: lambsquarters (Chenopodium album, CHEAL); assay: as above; settings: post-emerge, 14 days after application, rating scale 0-100
How it was run: as §3

[12] = tested on: barnyardgrass (Echinochloa crus-galli, ECHCG); assay: as above; settings: post-emerge, 14 days after application, rating scale 0-100
How it was run: as §3

[13] = tested on: large crabgrass (Digitaria sanguinalis, DIGSA); assay: as above; settings: post-emerge, 14 days after application, rating scale 0-100
How it was run: as §3

[14] = tested on: green foxtail (Setaria viridis, SETVI); assay: Pre-emerge test, greenhouse herbicide activity screening; settings: pre-emerge, 14 days after application, scale 0-100
How it was run: as §1

[15] = tested on: sicklepod (Cassia obtusifolia, CASOB); assay: as above; settings: pre-emerge, 14 days after application, scale 0-100
How it was run: as §1

[16] = tested on: ivyleaf morningglory (Ipomoea hederacea, IPOHE); assay: as above; settings: pre-emerge, 14 days after application, scale 0-100
How it was run: as §1

[17] = tested on: velvetleaf (Abutilon theophrasti, ABUTH); assay: as above; settings: pre-emerge, 14 days after application, scale 0-100
How it was run: as §1

[18] = tested on: johnsongrass (Sorghum halepense, SORHA); assay: as above; settings: pre-emerge, 14 days after application, scale 0-100
How it was run: as §1

[19] = tested on: lambsquarters (Chenopodium album, CHEAL); assay: as above; settings: pre-emerge, 14 days after application, scale 0-100
How it was run: as §1

[20] = tested on: barnyardgrass (Echinochloa crus-galli, ECHCG); assay: as above; settings: pre-emerge, 14 days after application, scale 0-100
How it was run: as §1

[21] = tested on: large crabgrass (Digitaria sanguinalis, DIGSA); assay: as above; settings: pre-emerge, 14 days after application, scale 0-100
How it was run: as §1

SMILES: COc1c(Cl)cc(F)c(-n2c(=O)cc(C(F)(F)F)n(C)c2=O)c1NC(=O)CCc1cc(C)ccc1C [2-132]
- phytotoxicity rating AMARE ([1]; 63 g ai/ha): 100
- phytotoxicity rating AMARE ([1]; 250 g ai/ha): 100
- RICE phytotoxicity rating (crop damage) ([2]; 63 g ai/ha): 50
- RICE phytotoxicity rating (crop damage) ([2]; 250 g ai/ha): 80
- CORN phytotoxicity rating (crop damage) ([3]; 63 g ai/ha): 60
- CORN phytotoxicity rating (crop damage) ([3]; 250 g ai/ha): 75
- phytotoxicity rating RICE (crop damage) ([4]; 63 g ai/ha): 15
- phytotoxicity rating RICE (crop damage) ([4]; 250 g ai/ha): 45
- phytotoxicity rating CORN (crop damage) ([5]; 63 g ai/ha): 5
- phytotoxicity rating CORN (crop damage) ([5]; 250 g ai/ha): 15
- SETVI phytotoxicity rating ([6]; 63 g ai/ha): 40
- SETVI phytotoxicity rating ([6]; 250 g ai/ha): 60
- CASOB phytotoxicity rating ([7]; 63 g ai/ha): 100
- CASOB phytotoxicity rating ([7]; 250 g ai/ha): 99
- IPOHE phytotoxicity rating ([8]; 63 g ai/ha): 100
- IPOHE phytotoxicity rating ([8]; 250 g ai/ha): 100
- ABUTH phytotoxicity rating ([9]; 63 g ai/ha): 100
- ABUTH phytotoxicity rating ([9]; 250 g ai/ha): 100
- AMARE phytotoxicity rating ([10]; 63 g ai/ha): 100
- AMARE phytotoxicity rating ([10]; 250 g ai/ha): 100
- CHEAL phytotoxicity rating ([11]; 63 g ai/ha): 100
- CHEAL phytotoxicity rating ([11]; 250 g ai/ha): 100
- ECHCG phytotoxicity rating ([12]; 63 g ai/ha): 20
- ECHCG phytotoxicity rating ([12]; 250 g ai/ha): 40
- DIGSA phytotoxicity rating ([13]; 63 g ai/ha): 10
- DIGSA phytotoxicity rating ([13]; 250 g ai/ha): 25
- phytotoxicity rating SETVI ([14]; 63 g ai/ha): 90
- phytotoxicity rating SETVI ([14]; 250 g ai/ha): 100
- phytotoxicity rating CASOB ([15]; 63 g ai/ha): 50
- phytotoxicity rating CASOB ([15]; 250 g ai/ha): 100
- phytotoxicity rating IPOHE ([16]; 63 g ai/ha): 20
- phytotoxicity rating IPOHE ([16]; 250 g ai/ha): 40
- phytotoxicity rating ABUTH ([17]; 63 g ai/ha): 100
- phytotoxicity rating ABUTH ([17]; 250 g ai/ha): 100
- phytotoxicity rating SORHA ([18]; 63 g ai/ha): 30
- phytotoxicity rating SORHA ([18]; 250 g ai/ha): 50
- phytotoxicity rating CHEAL ([19]; 63 g ai/ha): 100
- phytotoxicity rating CHEAL ([19]; 250 g ai/ha): 100
- phytotoxicity rating ECHCG ([20]; 63 g ai/ha): 30
- phytotoxicity rating ECHCG ([20]; 250 g ai/ha): 40
- phytotoxicity rating DIGSA ([21]; 63 g ai/ha): 60
- phytotoxicity rating DIGSA ([21]; 250 g ai/ha): 100

From patent US6355799B1, “Substituted benzene compounds, process for their preparation, and herbicidal and defoliant compositions containing them” (ISK Americas Incorporated, priority 1997, dated 2002)
